Patent US9023853B2, “Janus kinase 2 (JAK2) inhibitor for the treatment of lupus” (Cephalon, Inc., priority 2010, dated 2015)
“And” between values parts separate entries of the source, which are not always exact repeats. Identical values can stand only once.

Tests used:
Type in all cases: in vivo, mouse
NZM mice [1] = assay: Survival in NZM lupus model; settings: for Age (d), MEAN: NZM group mean; for Age: NZM individual mouse (survival; EOS = 310 days of age); for survival at EOS: NZM mice
Protocol: Six week old lupus-prone, female, MRL/lpr (Jackson Labs, #000485) and non-lupus prone control MRL/MpJ (Jackson Labs, #000486) mice were obtained from Jackson Laboratories (Bar Harbor, Me.) at 6-weeks of age. Spontaneous SLE-prone NZBWF1/J (NZM) (catalog no. 100008) female mice and non-lupus prone (within time from of experiment) NZW/LacJ (catalog no. 001058) female mice were obtained from Jackson Laboratories (Bar Harbor, Me.) at 15-weeks of age. All mice were maintained on a […] light/dark cycle, with food and water available ad libitum. All experimental animal procedures were approved by and in accordance to the regulations of the Institutional Animal Care and Use Committee (IACUC) of Cephalon, Inc; approved IACUC protocol #03-040 and #03-03-041.
The NZM strain acts as a mouse model of genetically-driven, progressive, systemic lupus erythematosus (SLE). The evolution of the disease in NZM mice is characterized by an abnormal polyclonal B cell activation with a high production of various autoantibodies, including those directed against DNA and other nuclear antigens, and against cytoskeleton proteins. Elevated circulating immune complexes can lead to fatal glomerulonephritis in older mice.
(§1) Age mated, female, NZM or NZW/LacJ, mice were matured for the study of lupus nephritis for a total of 7 months or 210 days at which time urine was collected for proteinuria detection. Mice with 0.5-1.0 mg/ml of urine protein as determined by an optical density-based total protein precipitation assay and cross-checked for 30-300 mg/dl of protein as determined by a stick assay were considered proteinuria positive and selected for study entry. Groups were normalized to contain a Gaussian distribution of proteinuria positive animals (i.e., ⅓ low proteinuria, ⅓ medium, ⅓ high) then randomized between groups before ear marking and taking baseline measures including urine and serum collections. A total of five mice from the total population were randomly selected for baseline kidney histology evaluation. Treatments and tests for each group are as described in FIG. 12. Briefly, with a minimum of 10 mice per group, COMPOUND A was administered at 100 mg/kg or 55 mg/kg, both twice a day and orally. […] Vehicle included 3% DMSO, 10% Solutol and 87% PBS. […] End-stage lupus nephritis was evaluated by histopathology and scored by a board certified pathologist for the assessment of total renal damage in diseased animals using the scoring method described by Smith et al (Smith, Dong et al. 2007). […] Day-98 or “end of treatment/study” represents 310 days of age for the NZM animals.

anti-dsDNA antibodies = assay: Serum anti-dsDNA ANA ELISA in NZM mice; settings: for A: Anti-dsDNA IgG, MEAN: NZM group mean; for A: Anti-dsDNA IgG: NZM individual mouse; for serum anti-dsDNA ANAs decrease compared to vehicle: NZM mice
Excerpt: The measurement of anti-dsDNA and anti-Smith antigen antibodies was done by an in-house generated custom ELISA assay. Chromatin coated plates were purchased from Inova Diagnostics, Inc. Purified bovine thymus dsDNA (Sigma, St. Louis, […].) or purified bovine Smith antigen (GenWay, San Diego, Calif.) were used as coating antigen for the detection of anti-dsDNA and anti-Smith Ag antibodies respectively. Coated plates were washed with Borate Sulfate Saline (BSS) and blocked with BSS containing 1% Bovine Serum Albumin (BSA) and 0.1% Tween-20 detergent. Standard curves were generated using mouse anti-chromatin antibody (Sigma, 2B1) or 25 week old MRL/lpr serum. Mouse anti-dsDNA antibody (Abcam, Cambridge, Mass.), or mouse anti-Smith antigen antibody (Abcam) were used as standards for each assay. Secondary antibody was purchased from Abcam (goat anti-mouse pAb-HRP), the substrate was purchased from Rockland (Gilbertsville, Pa.) (TMB), and stop reaction buffer was generated using 1 mL of concentrated sulfuric acid into 20 mL of dH2O. Developed plates were read using a Victor-X4 spectrophotometer reading at […] with a reference wavelength of 570 nm. For all ANA ELISA assays, values below the limit of detection set by the lowest point along the standard or set by the manufacturer were considered out of range and were not estimated, but assumed the lowest point along the standard curve for that particular assay.
as §1

NZM mice [2] = assay: Urinalysis total urine protein (proteinuria) in NZM mice; settings: for I: Proteinuria, MEAN: NZM group mean; for I: Proteinuria: NZM individual mouse
Protocol: Urine samples were acid precipitated for total protein recovery and analysis. Samples for which enough urine remained were used for Uristix® leukouria analysis (MRL/lpr study only). Briefly, a standard protein solution was prepared from normal mouse sera and was used as a standard for mouse urinary protein assay by turbidity. Standard preparation was as follows: 0, 5, 10, 15, 20, 30, 40, and 50 μL of a 4 mg/mL mouse sera standard protein solution as provided in the kit were added in duplicate into two columns. PBS was added to individual wells to adjust the final volume to 50 μL. For urine sample preparation, urine samples were centrifuged at 9880×g for 3 minutes using a tabletop micro-centrifuge. Urine supernatant (1-50 μL) was added in duplicate. PBS was added to adjust the volume to 50 μL total. For the turbidity assay: 25 μL of 0.1 N HCl was added into blank columns and 250 μL of 3% sulfosalicyclic acid into the test columns. The microplate was incubated for 10 minutes at RT and plates were read using an ELISA reader with single beam at 450 nm. For the Uristix® strip assay, strips were laid out and labeled. Twenty microliters of urine were placed onto each test strip square and incubated for at least 30 seconds before the result was recorded. For all total urine analysis plate-based assays, values below the limit of detection set by the lowest point along the standard or set by the manufacturer were considered out of range and were not estimated, but assumed the lowest point along the standard curve for that particular assay.
as §1

CN1CCN(c2cccc(Nc3nc4c(-c5ccc(S(C)(=O)=O)cc5)cccn4n3)c2)CC1 [COMPOUND A, [8-(4-methanesulfonyl-phenyl)-[1,2,4]triazolo[1,5-a]pyridin-2-yl]-[3-(4-methyl-piperazin-1-yl)-phenyl]-amine]
Age (d), MEAN (NZM mice [1]; CMPD A 55 mpk bid): 300.2 days | Age (d), MEAN (NZM mice [1]; CMPD A 100 mpk bid): 291.8 days | Age (NZM mice [1]; CMPD A 55 mpk bid, 55 mg/kg): 310 d (9×) and 212 d | Age (NZM mice [1]; CMPD A 100 mpk bid, 100 mg/kg): 310 d (7×) and 268 d (2×) and 212 d | survival at EOS (NZM mice [1]; COMPOUND A 55 mg/kg orally twice a day): 90% | survival at EOS (NZM mice [1]; COMPOUND A 100 mg/kg orally twice a day): 70% | A: Anti-dsDNA IgG, MEAN (anti-dsDNA antibodies; CMPD A 55 mpk bid): 16.4 | A: Anti-dsDNA IgG, MEAN (anti-dsDNA antibodies; CMPD A 100 mpk bid): 14.4 | A: Anti-dsDNA IgG (anti-dsDNA antibodies; CMPD A 55 mpk bid, 55 mg/kg): 20.6 and 39.4 and 9.4 and 12.6 and 12.7 and 7.5 and 15.2 and 16.7 and 19.3 and 10.8 | A: Anti-dsDNA IgG (anti-dsDNA antibodies; CMPD A 100 mpk bid, 100 mg/kg): 13.4 and 18.2 and 9.6 and 13.8 and 11.5 and 6.6 and 20.5 and 5.1 and 26.5 and 19.2 | serum anti-dsDNA ANAs decrease compared to vehicle (anti-dsDNA antibodies; COMPOUND A 55 mg/kg, over course of disease): 67.0% | serum anti-dsDNA ANAs decrease compared to vehicle (anti-dsDNA antibodies; COMPOUND A 100 mg/kg, over course of disease): 73.9% | I: Proteinuria, MEAN (NZM mice [2]; CMPD A 55 mpk bid): 0.56 mg/mL | I: Proteinuria, MEAN (NZM mice [2]; CMPD A 100 mpk bid): 1.32 mg/mL | I: Proteinuria (NZM mice [2]; CMPD A 55 mpk bid, 55 mg/kg): 0.41 mg/mL (2×) and 0.50 mg/mL and 0.74 mg/mL and 0.48 mg/mL (2×) and 0.52 mg/mL and 1.11 mg/mL and 0.37 mg/mL and 0.61 mg/mL | I: Proteinuria (NZM mice [2]; CMPD A 100 mpk bid, “0.00” = BQL, 100 mg/kg): 0.48 mg/mL and 0.55 mg/mL and 0.70 mg/mL and 0.53 mg/mL and 0.44 mg/mL and 0.11 mg/mL and 0.00 mg/mL (3×) and 10.39 mg/mL | total urine protein decrease compared to vehicle (NZM mice [2]; NZM mice, COMPOUND A 55 mg/kg, over course of disease): 76.25 | total urine protein decrease compared to vehicle (NZM mice [2]; NZM mice, COMPOUND A 100 mg/kg, over course of disease): 81.8% | urine protein levels relative to age-matched, non-lupus control mice (NZM mice [2]; NZM mice, COMPOUND A treatment, FIG. 17): below the protein levels of age-matched, non-lupus control mice

O=P1(N(CCCl)CCCl)NCCCO1 (stereo not shown) [CTX, cyclophosphamide, reference compound]
Age (d), MEAN (NZM mice [1]; CTX 50 mpk 1 × wk): 284.9 days | Age (NZM mice [1]; CTX 50 mpk 1 × wk): 227 d and 310 d (7×) and 212 d and 240 d | survival at EOS (NZM mice [1]; CTX 50 mg/kg once weekly ip): 70% | A: Anti-dsDNA IgG, MEAN (anti-dsDNA antibodies; CTX 50 mpk 1 × wk): 30.9 | A: Anti-dsDNA IgG (anti-dsDNA antibodies; CTX 50 mpk 1 × wk): 13.4 and 6.9 and 22.2 and 13.2 and 40.3 and 9.6 and 65.1 and 52.4 and 24.3 and 61.9 | serum anti-dsDNA ANAs decrease compared to vehicle (anti-dsDNA antibodies; CTX 50 mg/kg once weekly ip): 65.3% | I: Proteinuria, MEAN (NZM mice [2]; CTX 50 mpk 1 × wk): 2.8 mg/mL | I: Proteinuria (NZM mice [2]; CTX 50 mpk 1 × wk): 11.09 mg/mL and 0.86 mg/mL and 1.44 mg/mL and 0.76 mg/mL and 1.30 mg/mL and 0.71 mg/mL and 8.84 mg/mL and 0.96 mg/mL and 0.58 mg/mL and 1.50 mg/mL | total urine protein decrease compared to vehicle (NZM mice [2]; NZM mice, CTX 50 mg/kg once weekly ip): 67.1%

C[C@@H]1C[C@H]2[C@@H]3CCC4=CC(=O)C=C[C@]4(C)[C@@]3(F)[C@@H](O)C[C@]2(C)[C@@]1(O)C(=O)CO [Dex, dexamethasone, reference compound]
Age (d), MEAN (NZM mice [1]; Dex 1.5 mpk 3 × wk): 261.4 days | Age (NZM mice [1]; Dex 1.5 mpk 3 × wk): 291 d (2×) and 240 d (3×) and 268 d and 310 d (2×) | A: Anti-dsDNA IgG, MEAN (anti-dsDNA antibodies; Dex 1.5 mpk 3 × wk): 42.7 | A: Anti-dsDNA IgG (anti-dsDNA antibodies; Dex 1.5 mpk 3 × wk): 27.2 and 18.9 and 20.0 and 79.5 and 167.5 and 27.8 and 16.2 and 10.9 and 17.1 | I: Proteinuria, MEAN (NZM mice [2]; Dex 1.5 mpk 3 × wk): 7.86 mg/mL | I: Proteinuria (NZM mice [2]; Dex 1.5 mpk 3 × wk): 8.43 mg/mL and 10.19 mg/mL (2×) and 11.02 mg/mL and 8.47 mg/mL and 0.35 mg/mL and 7.16 mg/mL and 0.55 mg/mL and 12.36 mg/mL and 9.89 mg/mL
